Like-named read-outs stand apart in the source and are kept apart here.
Key:
EcGyr [1] = molecular target: T1, EcGyr (Escherichia coli, UniProt P0AES4+P0AES6); test: DNA supercoiling assay, E. coli gyrase; assay type: biochemical; conditions: relaxed pBR322, 37°C 30 min, 1% DMSO, n = 3; read-out: IC50 supercoiling inhibitory activity, EcGyr
T1 construct: made in house
Protocol: A supercoiling assay was utilized to test a library of compounds previously selected for binding to EcA2PfB2 but not EcGyr. The library was a kind gift from Yasumitsu Kondoh, RIKEN. The EcGyr complex was used as a control allowing selection for specific compounds that target PfB. Supercoiling assays were carried out in a buffer consisting of 35 mM Tris-HCl (pH 7.5), 24 mM KCl, 4 mM MgCl2, 2 mM DTT, 1.8 mM spermidine, 1 mM ATP, 6.5% (wt/vol) glycerol, and 0.1 mg/ml bovine serum albumin (BSA). The hybrid (EcA2PfB2) complex or EcGyr complex was formed in the storage buffer (50 mM Tris-HCl [pH 7.5], 100 mM KCl, 10% [wt/vol] glycerol, 1 mM EDTA, 2 mM DTT). In a 30-μl reaction, the gyrase complex and 0.5 μg of pBR322 relaxed DNA (Inspiralis, United Kingdom) were assembled on ice and incubated at 37°C for 30 min. The reaction was then stopped by adding an equal volume of stop solution (40% sucrose, 100 mM Tris-HCl [pH 7.5], 1 mM EDTA, 0.5 mg/ml bromophenol blue) and extracted by mixing with 30 μl chloroform-isoamyl alcohol (24:1). The samples were centrifuged at 14,000 × g for 1 min, and the aqueous phase was collected and loaded onto a 1% 1× Tris-acetate-EDTA (TAE) agarose gel. The DNA products were resolved by electrophoresis at 80 V for 120 min and visualized by UV irradiation. The images were then analyzed using ImageJ v.1.47 to obtain the intensity of the supercoiled DNA band. […]

EcA2PfB2 [2] = molecular target: T2, EcA2PfB2 (Plasmodium falciparum, UniProt Q8I528); test: biochemical; assay type: biochemical, Plasmodium falciparum GyrB with Escherichia coli GyrA; conditions: for Sensitivity of hybrid complex to known bacterial gyrase inhibitors: supercoiling, Fig. S1D and E
Protocol: A supercoiling assay was utilized to test a library of compounds previously selected for binding to EcA2PfB2 but not EcGyr. The library was a kind gift from Yasumitsu Kondoh, RIKEN. The EcGyr complex was used as a control allowing selection for specific compounds that target PfB. Supercoiling assays were carried out in a buffer consisting of 35 mM Tris-HCl (pH 7.5), 24 mM KCl, 4 mM MgCl2, 2 mM DTT, 1.8 mM spermidine, 1 mM ATP, 6.5% (wt/vol) glycerol, and 0.1 mg/ml bovine serum albumin (BSA). The hybrid (EcA2PfB2) complex or EcGyr complex was formed in the storage buffer (50 mM Tris-HCl [pH 7.5], 100 mM KCl, 10% [wt/vol] glycerol, 1 mM EDTA, 2 mM DTT). In a 30-μl reaction, the gyrase complex and 0.5 μg of pBR322 relaxed DNA (Inspiralis, United Kingdom) were assembled on ice and incubated at 37°C for 30 min. The reaction was then stopped by adding an equal volume of stop solution (40% sucrose, 100 mM Tris-HCl [pH 7.5], 1 mM EDTA, 0.5 mg/ml bromophenol blue) and extracted by mixing with 30 μl chloroform-isoamyl alcohol (24:1). The samples were centrifuged at 14,000 × g for 1 min, and the aqueous phase was collected and loaded onto a 1% 1× Tris-acetate-EDTA (TAE) agarose gel. The DNA products were resolved by electrophoresis at 80 V for 120 min and visualized by UV irradiation. The images were then analyzed using ImageJ v.1.47 to obtain the intensity of the supercoiled DNA band. Gyrase with 1% dimethyl sulfoxide (DMSO) was used as the control. The percentage of supercoiled DNA (% SC) was normalized using samples with gyrase in the absence of inhibitor as the full supercoiling control and was plotted against PPG concentration. Data were fitted to the equation % SC = ae^b^[PPG], where a and b are function parameters, using OriginLab Origin (Pro) v.2020b.

P. falciparum 3D7 [3] = conditions: growth in vitro; ref [25], [33]; cited from earlier work
PfB [4] = molecular target: T3, PfB (Plasmodium falciparum, UniProt Q8I528); test: Microscale thermophoresis binding to PfB
Protocol: (§1) Microscale thermophoresis (MST) experiments were performed using a Monolith NT.115 instrument (NanoTemper). Proteins (PfB and EcB) were labeled with Red 2nd Generation labeling kits (NanoTemper) in which the fluorescent red dye was coupled with protein via NHS coupling. Labeled protein (100 nM) was mixed with PPG (Activate Scientific, dissolved in DMSO to a final concentration of 5%) and in MST buffer {240 mM NaPi (pH 7.4), 274 mM NaCl, 54 mM KCl, 100 μM TCEP [Tris(2-carboxyethyl)phosphine hydrochloride], 0.05% Tween 20, 5% DMSO} and incubated in the dark for 15 min. The samples were applied onto capillaries (Monolith NT.115 MST Premium coated capillaries), and the fluorescence signal was measured using MO.Control software (Nanotemper). Initial fluorescence signal was used for binding analysis, and Kd was calculated using 1:1 binding model. Results were baseline corrected and normalized for amplitude using MO.Control software (Nanotemper). The Kd values were calculated based on three independent measurements. All experiments were performed at room temperature.

EcB = molecular target: T4, EcB (Escherichia coli, UniProt P0AES6); test: Microscale thermophoresis binding to EcB; conditions: 1:1 binding model, 100 nM labeled protein, 5% DMSO, room temperature; read-out: Kd for EcB (MST)
T4 construct: made in house
Protocol: as §1

PfB [5] = molecular target: T3, PfB; test: ATP hydrolysis assay (malachite green), PfB; assay type: biochemical; conditions: 1 μM PfB
Protocol: (§2) The ATP hydrolysis reaction was performed as follows. Enzyme was incubated in the assay buffer (50 mM Tris-HCl [pH 7.5], 125 mM KCl, 1 mM EDTA, 5 mM MgCl2, 5 mM DTT, 10% glycerol) with test compounds at various concentrations, 1 mM ATP, and 10.5 nM linear pBR322 DNA for 30 min at room temperature. The protein concentrations used in the assay were as follows: 1 μM PfB, 0.5 μM EcA2PfB2, and 100 nM EcGyr. A malachite green assay kit (Sigma-Aldrich) was used to measure the released phosphate in the reaction. In brief, malachite green reagent was added to the reaction mixture, and the mixture was further incubated for 10 min. The formed color was measured at 620 nm using a plate reader (SpectraMAX190; Molecular Devices). The amount of released phosphate was calculated based on a calibration curve covering a linear range of 50 to 250 pmol using eight concentrations, which was prepared for each measurement independently. Experiments were carried out in triplicate.

EcA2PfB2 [6] = molecular target: T2, EcA2PfB2; test: ATP hydrolysis assay (malachite green), hybrid gyrase; assay type: biochemical, Plasmodium falciparum GyrB with Escherichia coli GyrA
Protocol: as §2, with “Enzyme was incubated in the assay buffer (50 mM Tris-HCl [pH 7.5], 125 mM KCl, 1 mM EDTA, 5 mM MgCl2, 5 mM DTT, 10% glycerol) with test compounds at various concentrations, 1 mM ATP, and 10.5 nM linear pBR322 DNA for 30 min at room temperature.” left out

EcGyr [7] = molecular target: T1, EcGyr; test: ATP hydrolysis assay (malachite green), EcGyr; assay type: biochemical; conditions: 100 nM EcGyr
Protocol: as §2

PfB [8] = molecular target: T3, PfB; test: EMSA DNA binding, PfB; conditions: 147 bp DNA, 1 μM PfB
Protocol: (§3) DNA binding assays were carried out using electrophoretic mobility shift assay (EMSA) with 147 bp dsDNA (based on the preferred gyrase cleavage site from plasmid pBR322) ([31]). In brief, 20 nM DNA was mixed with 200 nM reconstituted complex (hybrid or EcGyr) or 1 μM PfB in an assay buffer (30 mM Tris-HCl [pH 7.5], 75 mM KCl, 2 mM MgCl2, 6% glycerol, 1 mM DTT) and PPG for 1 h at room temperature. The samples were resolved in a 5% polyacrylamide gel in TBM buffer (90 mM Tris-borate, pH 7.5, 4 mM MgCl2) for 1 h at 80 V. The gel was stained with SYBR gold (Thermo) and visualized under UV light.

EcA2PfB2 [9] = molecular target: T2, EcA2PfB2; test: EMSA DNA binding, hybrid gyrase; design: species or system Plasmodium falciparum GyrB with Escherichia coli GyrA; conditions: 147 bp DNA, 200 nM complex
Protocol: as §3

EcGyr [10] = molecular target: T1, EcGyr; test: EMSA DNA binding, EcGyr; conditions: 147 bp DNA, 200 nM complex
Protocol: as §3

P. falciparum 3D7 [11] = test: P. falciparum growth inhibition in vitro (SYBR green); assay type: cell-based; conditions: Plasmodium falciparum, 96 h of treatment
Protocol: Tests on parasites were performed by Anti-infectives Screening Core Services at NYU School of Medicine based on previously published protocol ([44]). P. falciparum strain 3D7 was used for all determinations. Using 96-well plates, 100 μl of P. falciparum growth medium (RPMI 1640, 25 mM HEPES, 0.1 mg/ml gentamicin, 0.05 mg/liter hypoxanthine [pH 6.75]), supplemented with 0.25% sodium bicarbonate and 0.5% Albumax II (Invitrogen), was added to each well. A 10 mM stock of PPG in DMSO was then serially diluted in triplicate. DMSO at the highest concentration used (0.5%) was tested in parallel as a control. Asynchronous P. falciparum in a 100-μl volume was then added to each well at 0.25% late-stage parasitemia with 5% hematocrit, as well as controls (medium, red blood cells, P. falciparum, or P. falciparum with 2 μM chloroquine). The plates were placed in a sealed chamber and maintained under atmospheric conditions of 5% oxygen, 5% carbon dioxide, and 90% nitrogen at 37°C for 96 h. To determine the cell viability, a SYBR green assay for rapid assessment was performed.
After incubation, plates were placed at −80°C for 24 h. The plates were then thawed at 37°C for 4 h. Once thawed, 100 μl of from each resuspended well was transferred into a black, 96-well plate. […] Plates were analyzed on a fluorescence plate reader (Victor) at excitation and emission wavelengths of 485 and 530 nm, respectively. […]

EcA2PfB2 [12] = molecular target: T2, EcA2PfB2; test: DNA cleavage assay; assay type: biochemical, Plasmodium falciparum GyrB with Escherichia coli GyrA; conditions: 150 nM EcA2PfB2, supercoiled DNA, no ATP
Protocol: 22 The purified proteins (2 µg) were subjected to a 10% SDS PAGE and resolved by
23 electrophoresis at 180 V for 40 minutes. The protein bands were visualized by Coommassie
26 The DNA cleavage assay was performed in the same buffer conditions as for
27 supercoiling but ATP was omitted and supercoiled DNA was used instead of relaxed DNA.
28 EcA2PfB2 complex (150 nM) was incubated with 0.5 µg of supercoiled DNA in the
29 absence/presence of inhibitors for 60 min at 37 °C. In order to monitor the production of
30 linearized DNA, protein was removed by addition of 3 µl of 2% SDS and 1 µl of proteinase K
31 (>700 U) followed by further incubation at 37 °C for 30 min. The DNA was then extracted and
32 resolved in gel electrophoresis as described.

SMILES: O=C1c2ccccc2C(=O)c2c1cc(S(=O)(=O)O)c(O)c2O [ARS, 1,2-dihydroxy-3-(oxysulfonyl)-9,10-anthracenedione]
- IC50 (EcGyr [1]): > 100 µM
- IC50 (EcA2PfB2 [2]): 55.6 ± 6.74 µM

SMILES: O=C(O)c1cn(C2CC2)c2cc(N3CCNCC3)c(F)cc2c1=O [CIP, ciprofloxacin, reference compound]
- Sensitivity of hybrid complex to known bacterial gyrase inhibitors (EcA2PfB2 [2]): sensitive
- IC50 (P. falciparum 3D7 [3]): 3 ± 0.5 µM

SMILES: CO[C@@H]1[C@@H](OC(N)=O)[C@@H](O)[C@H](Oc2ccc3c(O)c(NC(=O)c4ccc(O)c(CC=C(C)C)c4)c(=O)oc3c2C)OC1(C)C [Novobiocin, reference compound]
- Sensitivity of hybrid complex to known bacterial gyrase inhibitors (EcA2PfB2 [2]): sensitive

SMILES: O=c1c(O)cccc2cc(O)c(O)c(O)c12 [PPG, 3,9,10,11-tetrahydroxybicyclo[5.4.0]undeca-1(7),3,5,8,10-pentaen-2-one]
- IC50 (EcGyr [1]): > 1000 µM
- IC50 (EcA2PfB2 [2]): 9.56 ± 1.94 µM
- Kd (PfB [4]): ~1.03 µM
- Kd (EcB): ~4.54 µM
- Effect on DNA-enhanced ATP hydrolysis of PfB (PfB [5]; 10.5 nM linear pBR322 DNA, 1 mM ATP): decreased this DNA-enhanced ATP hydrolysis of PfB in a dose-dependent manner
- Effect on intrinsic ATPase activity of PfB (PfB [5]; no DNA): remained unchanged
- Effect on ATPase activity of EcA2PfB2 in the absence of DNA (EcA2PfB2 [6]; 0.5 μM EcA2PfB2): decreased the ATPase activity in both the absence and presence of DNA
- Effect on DNA-induced ATPase activity of EcA2PfB2 (EcA2PfB2 [6]; 0.5 μM EcA2PfB2, with DNA): inhibited the DNA-induced ATPase activity of EcA2PfB2, although this was more modest
- Effect on intrinsic and enhanced ATP hydrolysis by EcB in complex with EcA (EcGyr [7]): little affected
- PPG concentration at which formation of the DNA-PfB complex was inhibited (PfB [8]): approximately 20 μM
- PPG concentration at which the DNA-EcA2PfB2 complex was disrupted (EcA2PfB2 [9]): 10 µM
- Effect on DNA-EcGyr complex (EcGyr [10]): remained intact
- IC50 (P. falciparum 3D7 [11]): 92 ± 16 µM
- Linear DNA formation (cleavage complex stabilization) (EcA2PfB2 [12]): did not observe any linear DNA formation

Reference: publication PMC8448092, “Inhibitory Compounds Targeting Plasmodium falciparum Gyrase B” (Antimicrobial Agents and Chemotherapy, 2021)
